Here are results for two compounds from patent publication US8802162B2, “L-citrulline for treating endothelial dysfunction and erectile dysfunction” (Androsystems S.R.L., priority 2008, dated 2014).

Data set [1] in a line: Urinary excretion of nitrates, randomized prospective study in erectile dysfunction patients. The settings on record: for Urinary excretion of nitrates, baseline: before administration; for Urinary excretion of nitrates, after administration: oral, L-citrulline 6 grams/day or L-arginine 3 grams/day, 7 days after beginning of administration. The class given is in vivo. On the procedure:
(§1) The effectiveness of the administration of L-citrulline in the treatment of erectile dysfunction has been verified by conducting a randomized prospective study on 20 patients, during which L-citrulline was administered orally with a dosage of 6 grams/day, in two separate 3-gram doses, to patients affected by erectile dysfunction.
(§2) The effects of the administration were then tested at the biochemical level by studying the following parameters:
3. urinary excretion of nitrates;
(§3) The data related to the above cited biochemical parameters were acquired for patients subjected to the test 7 days after the beginning of the administration of the drug and are shown below in Table 1, Table 2, Table 3 and Table 4.

Data set [2] in a line: Urinary excretion of cGMP, randomized prospective study in erectile dysfunction patients. The class given is in vivo. The following applies: for Urinary excretion of cGMP, baseline: before administration; for Urinary excretion of cGMP, after administration: oral, L-citrulline 6 grams/day or L-arginine 3 grams/day, 7 days after beginning of administration. How it is done: as §1, §2
4. urinary excretion of cGMP.
as §3

For a further data set, the system named is erectile dysfunction. As to the kind of experiment: Erectile function assessment card (IIF-5 questionnaire). Type of data set: in vivo, patients. The settings on record: oral 6 grams/day, in words. How it is done: as §1
(§4) Moreover, the effects at the clinical level were also tested by administering the “Erectile function assessment card” (IIF-5 questionnaire) to the patients and by measuring flow-mediated vasodilation of the cavernous arteries before and after therapy.

A short description of data set [3]: Blood L-arginine/ADMA ratio, randomized prospective study in erectile dysfunction patients. Type of data set: in vivo. On the procedure: as §1, §2, §3
A further data set deals with cavernous arteries. As to the kind of experiment: Flow-mediated vasodilation of the cavernous arteries before and after therapy. Type of data set: in vivo, patients. The settings on record: oral 6 grams/day, before vs after therapy, in words. How it is done:
as §1, §4

A short description of data set [4]: Plasma levels of L-arginine after oral administration, randomized prospective study in erectile dysfunction patients. The class given is in vivo. The following applies: in words. On the procedure: as §1, §2, §3

Each structure is given as a SMILES string.

As for `N=C(N)NCCC[C@H](N)C(=O)O` [L-arginine, reference compound], in data set [1], the “Urinary excretion of nitrates, baseline” value came to 91 ± 10 nmol/mmol creatinine and the “Urinary excretion of nitrates, after administration” value turned out to be 93 ± 12 nmol/mmol creatinine. For the same compound, in data set [2], the “Urinary excretion of cGMP, baseline” value is recorded as 38 ± 3.1 nmol/mmol creatinine and the “Urinary excretion of cGMP, after administration” value is recorded as 39 ± 4.5 nmol/mmol creatinine.
`NC(=O)NCCC[C@H](N)C(=O)O` [L-citrulline]: the “IIF-5 questionnaire, components related to achieving and maintaining erection” value in the data set with erectile dysfunction is given as “leads to a modification of the IIF-5 questionnaire”. Further, in data set [1], the “Urinary excretion of nitrates, baseline” value was found to be 89 ± 9 nmol/mmol creatinine and the “Urinary excretion of nitrates, after administration” value is reported as 133 ± 16 nmol/mmol creatinine. For the same compound, the “Excretion of nitrates with respect to administration of L-arginine” value in data set [1] (oral administration, in words) is on record as “higher excretion”. Also, in data set [2], the “Urinary excretion of cGMP, baseline” value stood at 40 ± 2.8 nmol/mmol creatinine and the “Urinary excretion of cGMP, after administration” value is 55 ± 3.8 nmol/mmol creatinine. Also, in data set [2] (oral administration, in words), the “Excretion of cGMP with respect to administration of L-arginine” value is “higher excretion”. The “L-arginine/ADMA ratio, baseline” value in data set [3] (baseline, before administration) is given as 183 ± 8. Besides, in data set [3] (oral, L-citrulline 6 grams/day or L-arginine 3 grams/day, 7 days after beginning of administration), the “L-arginine/ADMA ratio, after administration” value is 290 ± 15. The “Increase in flow-mediated vasodilation at the level of the cavernous arteries” value in the data set on cavernous arteries was “statistically higher increase”. Moreover, in data set [4], the “Plasma half-life of L-arginine with respect to administration of L-arginine” value is recorded as “statistically longer” and the “Plasma levels of arginine with respect to administration of L-arginine” value is “statistically higher”.
